{"source": "patent US20230414578A1", "about": "“PHARMACEUTICAL COMPOSITION” (KOWA COMPANY, LTD., priority 2017, published 2023)", "key": {"[1]": {"assay": "Test Example 3: interaction study, visual examination of discoloration", "type": "physicochemical", "protocol": "The states (the presence or absence of discoloration) of the samples before the start of storage and after storage at 60°G for 2 weeks were visually examined."}, "[2]": {"assay": "Test Example 1: storage stability of pemafibrate alone (HPLC related substances)", "type": "physicochemical", "protocol": "In Test Examples below, measurement was performed through HPLC using an ODS column as a column and an ultraviolet spectrophotometer as a detector. 250 mg of pemafibrate was encapsulated in a polypropylene container (tight container defined in The Japanese Pharmacopoeia, 17th Edition, General Rules), and stored in a dark place at a temperature of 60° C. for 1 month. The amounts of pemafibrate-derived decomposition products (related substances) before the start of storage and after storage at 60° C. for 1 month were evaluated through the following method. The sum of related substance-derived peak areas was evaluated in terms of a ratio (%) to the pemafibrate-derived peak area using an HPLC apparatus, and the ratio was defined as the “Total amount (%) of related substances”."}}, "data": [{"smiles": "CC[C@@H](Oc1cccc(CN(CCCOc2ccc(OC)cc2)c2nc3ccccc3o2)c1)C(=O)O", "note": "[Pemafibrate alone, (2R)-2-[3-([1,3-Benzoxazol-2-yl[3-(4-methoxyphenoxy)propyl]amino]methyl)phenoxy]butanoic acid]", "values": [{"measurement": "State, Before storage", "setting": "[1]; before start of storage", "result": "White"}, {"measurement": "State, After storage at 60° C. for 2 weeks", "setting": "[1]; polypropylene tight container, dark place, 60° C., 2 weeks", "result": "White"}, {"measurement": "increase in the amount of related substances (in words)", "setting": "[2]; after storage at 60° C. for 1 month", "result": "no substantive increase"}, {"measurement": "Total amount (%) of related substances, Before storage", "setting": "[2]; before start of storage, sum of related substance peak areas as ratio to pemafibrate peak area, HPLC", "result": "<0.05", "unit": "%"}, {"measurement": "Total amount (%) of related substances, After storage at 60° C. for 1 month", "setting": "[2]; polypropylene tight container, dark place, 60° C., 1 month, HPLC peak area ratio", "result": "<0.05", "unit": "%"}]}]}
